Test results published in patent publication US7674772B2, “Compositions and methods for treating atherosclerosis” (Queen's University at Kingston, priority 2006, dated 2010).
Square brackets hold non-standard residues; d marks the D form. Ends that are not written are not given here.

What was measured:
[1] = test system: [3H]-cholesterol-loaded J774 macrophages; test: in vivo mouse cholesterol export model; set-up: species or system mice
Description: In these experiments, mice (n=4) were first injected intravenously with [^3H]cholesterol-laden macrophages and then injected 24 hours later with the exemplary retro-inversal D amino acid peptide RFHNPDKGSRGWENAAQDA (D-form; SEQ ID NO: 3). This peptide is the reverse sequence of the forward human D amino acid 19-mer peptide ADQAANEWGRSGKDPNHFR (D-form; SEQ ID NO:11) disclosed in U.S. patent application Ser. No. 11/268,690, filed Nov. 7, 2005, teachings of which are herein incorporated by reference in their entirety.
The retro-inversal D amino acid peptide RFHNPDKGSRGWENAAQDA (SEQ ID NO: 3) at a total dose of 300 ug, was injected into the tail vein of each mouse that was previously (24 hours earlier) injected with H^3-radiolabeled cholesterol-loaded macrophages. […] The blood samples were centrifuged to separate the red blood cells from the plasma and the [^3H]-cholesterol in plasma was determined by scintillation counting. […]
Cells were washed four times with PBS/BSA and then detached from the culture dishes. […] Baseline cholesterol efflux was determined by measuring the amount of [^3H]-cholesterol in plasma by scintillation spectrometry. […]
Five hours following intravenous injection of the reverse peptide, approximately 25 μl of blood were collected from the tail vein of each animal into heparinized capillary tubes and cholesterol efflux was determined as described above. […]

human cell culture = settings: U.S. Ser. No. 11/268,690; cited from earlier work
mouse cell culture = settings: U.S. Ser. No. 11/268,690; cited from earlier work
[2] = intravenous and oral administration of an aqueous solution; U.S. Ser. No. 11/268,690; cited from earlier work

## RFHNPDKGSRGWENAAQDA ([dR][dF][dH][dN][dP][dD][dK]G[dS][dR]G[dW][dE][dN][dA][dA][dQ][dD][dA]) [SEQ ID NO: 3]
[1]; 300 μg total dose, tail vein injection, [3H]-cholesterol in plasma 5 hours post injection, n=4, p=0.0004
  increase in macrophage cholesterol export relative to control animals treated with saline vehicle alone: over 2.5 fold
[1]; intravenous, aqueous vehicle, versus vehicle control group (p=0.0004)
  in vivo macrophage cholesterol export / cholesterol efflux: significantly enhanced

## ADQAANEWGRSGKDPNHFR ([dA][dD][dQ][dA][dA][dN][dE][dW]G[dR][dS]G[dK][dD][dP][dN][dH][dF][dR]) [SEQ ID NO:11, forward human SAA 1.1 D amino acid 19-mer peptide disclosed in U.S. Ser. No. 11/268,690]
Human cell culture
  cholesterol efflux in vitro: effective at increasing cholesterol efflux
Mouse cell culture
  cholesterol efflux in vitro: effective at increasing cholesterol efflux
[2]
  cholesterol efflux in vivo: effective at increasing cholesterol efflux
